IC50 data for 15 compounds are collected here from patent US9102599B2, “N-((3-benzyl)-2,2-(bis-phenyl)-propan-1-amine derivatives as CETP inhibitors for the treatment of atherosclerosis and cardiovascular diseases” (Bristol-Myers Squibb Company, priority 2006, dated 2015).

For the assay, the target named is purified human recombinant CETP (Homo sapiens (Human), UniProt P11597). As to the kind of experiment: CETP Scintillation Proximity Assay. The conditions noted are these: CETP-dependent cholesterol ester transfer from 3H-CE/HDL to biotinylated LDL, 37° C.; read-out: CETP SPA IC50. Type of assay: biochemical. The method, then: CETP Scintillation Proximity Assay
Sequence of purified human recombinant CETP (P11597 18-493): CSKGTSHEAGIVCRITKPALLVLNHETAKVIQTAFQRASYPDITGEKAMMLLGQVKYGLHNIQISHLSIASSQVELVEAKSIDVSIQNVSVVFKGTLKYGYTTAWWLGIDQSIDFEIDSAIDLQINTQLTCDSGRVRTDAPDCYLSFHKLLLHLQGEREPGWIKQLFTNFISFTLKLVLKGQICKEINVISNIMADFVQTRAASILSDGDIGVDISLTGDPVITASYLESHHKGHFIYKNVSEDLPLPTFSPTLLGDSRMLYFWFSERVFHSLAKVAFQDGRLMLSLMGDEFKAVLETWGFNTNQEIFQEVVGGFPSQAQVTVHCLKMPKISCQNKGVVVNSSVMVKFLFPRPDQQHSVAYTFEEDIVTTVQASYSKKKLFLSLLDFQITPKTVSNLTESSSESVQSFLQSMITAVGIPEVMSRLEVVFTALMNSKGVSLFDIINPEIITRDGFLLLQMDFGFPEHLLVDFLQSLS
Dilutions of compounds in DMSO (1 μl) are added to BD plates (#353232). To this is added 20 μl of a mixture containing ^3H-CE/HDL (0.15 μl), biotinylated LDL (˜5 μg protein/ml final concentration) and unlabeled HDL (16 μg/ml final concentration) in a buffer containing 50 mM HEPES, pH 7.4, 150 mM NaCl and 0.05% sodium azide. Reactions are initiated by the addition of 10 μl of buffer containing purified human recombinant CETP, and incubated at 37° C. At the end of the reaction, 60 μl of LEADseeker beads (#RPNQ0261, 2 mg/ml in buffer containing 1 mg/ml BSA and 0.05 mg protein/ml HDL) are added, the plates are covered and subsequently read. Background activity is determined in a set of wells that receive buffer but no CETP. The level of inhibition is determined by comparing the readings in wells that contain compound to the readings in control wells containing DMSO.
As to `O[C@H](CNC[C@@](Cc1ccccc1)(c1cc(F)cc(OC(F)(F)C(F)F)c1)c1ccc(Cl)cn1)C(F)(F)F` (stereo in doubt) [Example 2, (R)-3-OR)-2-(5-chloropyridin-2-yl)-2-(3-fluoro-5-(1,1,2,2-tetrafluoroethoxy)phenyl)-3-phenylpropylamino)-1,1,1-trifluoropropan-2-ol], the IC50 (as a rule, the midpoint of a concentration-inhibition curve) came to 9 nM.
The value for `O=C(NC[C@@](Cc1ccccc1)(c1cc(F)cc(C(F)(F)F)c1)c1ccc(F)cn1)[C@@](O)(c1ccccc1)C(F)(F)F` [Example 5, (S)-3,3,3-trifluoro-N—((R)-2-(3-fluoro-5-(trifluoromethyl)phenyl)-2-(5-fluoropyridin-2-yl)-3-phenylpropyl)-2-hydroxy-2-phenylpropanamide] was 4360 nM; that for `O[C@H](CNC[C@@](Cc1ccccc1)(c1cc(F)cc(C(F)(F)F)c1)c1ccc(F)cn1)C(F)(F)F` [Example 6, (R)-1,1,1-trifluoro-3-((R)-2-(3-fluoro-5-(trifluoromethyl)phenyl)-2-(5-fluoropyridin-2-yl)-3-phenylpropylamino)propan-2-ol] was 30 nM; that for `O=C(NCC(Cc1ccccc1)(c1cccc(OC(F)(F)F)c1)c1cccc(OC(F)(F)F)c1)C1CC1(F)F` (stereo not drawn) [Example 11, 2,2-difluoro-N-(3-phenyl-2,2-bis(3-(trifluoromethoxy)phenyl)propyl)cyclopropanecarboxamide] was 1430 nM.
The value for `O=C(NCC(F)(F)F)NCC(Cc1ccccc1)(c1cccc(OC(F)(F)F)c1)c1cccc(OC(F)(F)F)c1` [Example 27, 1-(3-phenyl-2,2-bis(3-(trifluoromethoxy)phenyl)propyl)-3-(2,2,2-trifluoroethyl)urea] was 132 nM.
The value for `Cc1cc(CC(CNC[C@H](O)C(F)(F)F)(c2cccc(OC(F)(F)F)c2)c2cccc(OC(F)(F)F)c2)no1` [Example 43, (S)-1,1,1-trifluoro-3-(3-(5-methylisoxazol-3-yl)-2,2-bis(3-(trifluoromethoxy)phenyl)propylamino)propan-2-ol] was 134 nM; that for `O[C@H](CNCC(Cc1ccccn1)(c1cccc(OC(F)(F)F)c1)c1cccc(OC(F)(F)F)c1)C(F)(F)F` [Example 44, (R)-1,1,1-trifluoro-3-(3-(pyridin-2-yl)-2,2-bis(3-(trifluoromethoxy)phenyl)propylamino)propan-2-ol] was 19 nM.
In the case of `O[C@@H](CN(C[C@H](O)C(F)(F)F)CC(Cc1ccccc1)(c1cccc(OC(F)(F)F)c1)c1cccc(OC(F)(F)F)c1)C(F)(F)F` [Example 45, (2S,2′S)-3,3′-(3-phenyl-2,2-bis(3-(trifluoromethoxy)phenyl)propylazanediyl)bis(1,1,1-trifluoropropan-2-ol)], the 50% inhibitory concentration (IC50) turned out to be 2810 nM.
The value for `O[C@H](CNCC(Cc1ccccc1)(c1cccc(OC(F)(F)F)c1)c1cccc(OC(F)(F)F)c1)C(F)(F)F` [Example 47, (R)-1,1,1-trifluoro-3-(3-phenyl-2,2-bis(3-(trifluoromethoxy)phenyl)propylamino)propan-2-ol] was 14 nM.
As to `Cc1ccc(CC(CNC[C@@H](O)C(F)(F)F)(c2cccc(OC(F)(F)F)c2)c2cccc(OC(F)(F)F)c2)cc1` [Example 50, (R)-1,1,1-trifluoro-3-(3-p-tolyl-2,2-bis(3-(trifluoromethoxy)phenyl)propylamino)propan-2-ol], the 50% inhibitory concentration (IC50) worked out at 9 nM.
The value for `FC(F)(F)CCNCC(Cc1ccccc1)(c1cccc(OC(F)(F)F)c1)c1cccc(OC(F)(F)F)c1` [Example 53, 3,3,3-trifluoro-N-(3-phenyl-2,2-bis(3-(trifluoromethoxy)phenyl)propyl)propan-1-amine] was 25 nM; that for `Oc1c(F)cccc1CNCC(Cc1ccccc1)(c1cccc(OC(F)(F)F)c1)c1cccc(OC(F)(F)F)c1` [Example 94, 2-fluoro-6-((3-phenyl-2,2-bis(3-(trifluoromethoxy)phenyl)propylamino)methyl)phenol] was 184 nM.
Turning to `FC(F)(F)Oc1cccc(C(CNc2ncc(N3CCOCC3)cn2)(Cc2ccccc2)c2cccc(OC(F)(F)F)c2)c1` [Example 112, 5-morpholino-N-(3-phenyl-2,2-bis(3-(trifluoromethoxy)phenyl)propyl)pyrimidin-2-amine], the IC50 is 248 nM.
The value for `O=S(=O)(CC(F)(F)F)NCC(Cc1ccccc1)(c1cccc(OC(F)(F)F)c1)c1cccc(OC(F)(F)F)c1` [Example 122, 2,2,2-trifluoro-N-(3-phenyl-2,2-bis(3-(trifluoromethoxy)phenyl)-propyl)ethanesulfonamide] was 129 nM.
As to “isopropyl 3-phenyl-2,2-bis(3- (trifluoromethoxy)phenyl)- propylcarbamate [Example 133]”, the IC50 is 1090 nM.
